Patent publication US9447114B2, “Thieno- and furo[2,3-d]pyrimidine-2,4[1H,3H]-dione derivatives” (Hydra Biosciences, Inc., priority 2014, dated 2016)

Assays:
[1] = target: T1, TRPC5 channel (Homo sapiens (Human), UniProt Q9UL62); experiment: High throughput screening assay: intracellular Ca2+ rise, Fluo4 cell-based fluorescence; details: HEK293/TREx cells inducibly expressing TRPC5, high-Ca2+ Ringer, 14 mM Ca2+ final, triplicate, 0.027-20 μM
Source text: The assay depended on detection of the rise in intracellular Ca2+ concentration ([Ca2+]i) following channel activation in cells inducibly expressing the TRPC5 channel. Ca2+ rise was quantified with the use of fluorescent Ca2+ indicators that were loaded into cells and thereafter indicated the [Ca2+]i Ca2+ influx followed activation of the TRPC5 channel. Compounds inhibiting the [Ca2+]i rise were considered hits for further investigation.
The commercially available HEK293/TREx line (Invitrogen) was stably transfected with a TRPC5 construct and screened by conventional calcium imaging to find clones with TRPC5 expression following stimulation with 1 μg/ml tetracycline. These cells were maintained in the growth medium recommended by the manufacturer supplemented with 100 μg/ml hygromycin to promote retention of the TRPC5 construct. After growing to near confluency, cells were plated at a density of ˜35,000 cells/well in 384 well CellBind plates (Corning) in the presence of 1 μg/ml tetracycline, and allowed to grow for 20-30 hrs. A nearly confluent monolayer resulted. Cells were then loaded with Ca2+ dye: Fura-2/AM or Fluo4/AM was added to the wells to a final concentration of 4 μM or 0.5 μM, respectively, and incubated for 80 min or 60 min, respectively, at room temperature. Supernatant was then removed from the cells by inverting plates with a sharp flick, and 25 μl Hank's Balanced Salt Solution (HBSS; 0.185 g/l D-glucose, 0.9767 g/l MgS04 (anhydrous), 0.4 g/l KCl, 0.06 g/l KH2PO4 (anhydrous), 0.35 g/l NaHCO3, 8.0 g/l NaCl, and 0.04788 g/l Na2HPO4 (anhydrous); pH 7.4) was then added to each well. Following ˜0.5 hour for recovery from loading, cells were assayed using the Hamamatsu FDSS 6000 system, which permitted illumination alternately at 340 nm and 380 nm for Fura-2 experiments, or at 485 nm for Fluo4 experiments. Frames were acquired at a rate of 0.2 Hz. During the assay, the plates were continuously vortexed, with pipette mixing of wells following addition of each reagent. For the screening assay, 26 μl of a diluted compound stock (at 50 μM) was added to each well for 2 minutes following the collection of a short (4 frame) baseline. 13 μl 62 mM high-Ca2+Ringer solution (4.17 ml of normal ringer (with 2 mM Ca2+) plus 5.83 ml of isotonic calcium ringer (105 mM Ca2+; in this ringer all sodium has been replaced with calcium)) was then added to each well, achieving a final concentration of 14 mM Ca2+ and 10 μM test compound. Data was collected for ˜3 minutes following addition of high Ca2+Ringer, where the fluorescent intensity (for Fluo4) and the F340/F380 ratio (for Fura-2) were proportional to the [Ca2+]i Negative controls consisted of HEK293/TREx TRPC5 cells exposed to high Ca2+ solution, but no compound. Positive control conditions consisted of addition of 2-APB, a promiscuous blocker of TRPC5 and other channels, to columns 23 and 24 of the plates, to a final concentration of 200 μM. These controls defined a screening window, and “hits” were defined as those compounds inhibiting the fluorescence response by at least 40%. IC50 values were determined for compounds defined as “hits.” The Fluo4 cell-based fluorescence assay was used to determine the intracellular Ca2+ concentration in the presence of varying drug concentration. Final concentrations of compounds tested were 20 μM, 6.667 μM, 2.222 μM, 0.741 μM, 0.247 μM, 0.082 μM, and 0.027 μM. Compounds were tested in triplicate at all concentrations. Standard software was used to fit IC50 curves.
Additionally or alternatively, efficacy can be represented as % inhibition in the presence (of a given concentration of compound) versus the absence of compound or in comparison to a control compound. For example, efficacy can be represented as % inhibition of ion flux in the presence versus the absence of compound.

[2] = target: T1, TRPC5 channel; experiment: Whole-cell patch clamp of TRPC5 current; format: cell-based; details: TRPC5-expressing HEK293 TREx cells, current activated by 80 μM LaCl3 and 1.4 μM free Ca2+ in pipette, IC50 estimated
Source text: Patch clamp experiments permit the detection of currents through the TRPC5 channel in the cell line described above. In normal whole-cell patch clamp recordings, a glass electrode is brought into contact with a single cell and a high-resistance (gigaohm) seal is established with the cell membrane. The membrane is then ruptured to achieve the whole-cell configuration, permitting control of the voltage of the cell membrane and measurement of currents flowing across the membrane using the amplifier attached to the electrode and resulting in the replacement of cytoplasm with the pipette solution. A perfusion system permits control of the extracellular solution, including the addition of blockers and activators of the current. The current can be activated by including 1.4 μM free Ca^2+ in the pipette (intracellular) solution, and 80 μM LaCl3 in the extracellular solution.
TRPC5 cells were induced 20-48 hours, removed from growth plates, and replated at low density (to attain good single-cell physical separation) on glass coverslips for measurement. In some cases, cells were grown in low density overnight on glass coverslips. Patch clamp recordings were made in the whole-cell mode with a holding potential of −40 mV. Every 5 seconds, a voltage ramp was applied from −120 to +100 mV, 400 ms in duration. Currents elicited were quantified at −80 mV and +80 mV. The internal solution consisted of 140 mM cesium aspartate, 10 mM HEDTA, 2 mM CaCl2, 2.27 mM MgCl2 and 10 mM HEPES, pH 7.2, with 1,400 nM calculated free Ca^2+. The external solution consisted of 150 mM NaCl, 4.5 mM KCl, 1 mM MgCl2, 2 mM CaCl2 10 mM HEPES, 10 mM glucose, 1 mM EGTA, pH 7.4. Upon addition of LaCl3, TRPC5 current was induced only in TRPC5-expressing cells and not in parental HEK293 TREx cells. Removal of the LaCl3 stimulus causes most of the current to go away. Potential blockers were tested for ability to block both inward and outward currents in the continued presence of LaCl3.
IC50 of a compound of Formula (I) was estimated by testing the compound at 5 μM and 500 nM. […] IC50 for a compound of Formula (I) between 500 nM and 5 μM was similarly estimated.

T1 sequence (Q9UL62 whole entry): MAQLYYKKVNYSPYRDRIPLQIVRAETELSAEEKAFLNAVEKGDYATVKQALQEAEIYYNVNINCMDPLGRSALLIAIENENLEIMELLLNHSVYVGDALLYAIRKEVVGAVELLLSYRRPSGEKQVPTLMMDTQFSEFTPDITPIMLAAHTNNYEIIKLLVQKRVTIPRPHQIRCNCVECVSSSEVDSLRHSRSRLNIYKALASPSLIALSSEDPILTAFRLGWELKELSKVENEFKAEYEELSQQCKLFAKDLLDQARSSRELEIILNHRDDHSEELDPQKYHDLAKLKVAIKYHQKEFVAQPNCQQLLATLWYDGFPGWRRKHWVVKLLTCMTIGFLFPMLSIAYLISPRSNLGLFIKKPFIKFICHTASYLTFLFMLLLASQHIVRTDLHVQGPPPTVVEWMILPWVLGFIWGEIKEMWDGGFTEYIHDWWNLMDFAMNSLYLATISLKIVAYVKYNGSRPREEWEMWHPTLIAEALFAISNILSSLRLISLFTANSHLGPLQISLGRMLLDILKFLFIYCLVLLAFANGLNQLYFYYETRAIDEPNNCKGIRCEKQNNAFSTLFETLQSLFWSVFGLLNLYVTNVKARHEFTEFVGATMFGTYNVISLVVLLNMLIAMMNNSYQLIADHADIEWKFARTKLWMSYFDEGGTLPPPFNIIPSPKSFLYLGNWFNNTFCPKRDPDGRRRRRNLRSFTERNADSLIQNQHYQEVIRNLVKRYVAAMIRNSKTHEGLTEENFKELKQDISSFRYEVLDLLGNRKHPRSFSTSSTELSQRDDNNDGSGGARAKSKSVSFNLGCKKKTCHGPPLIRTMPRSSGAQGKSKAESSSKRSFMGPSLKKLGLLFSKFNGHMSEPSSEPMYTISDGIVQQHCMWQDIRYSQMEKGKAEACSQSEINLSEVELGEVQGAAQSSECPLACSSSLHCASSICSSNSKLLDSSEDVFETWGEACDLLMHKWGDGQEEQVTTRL

Cn1c(=O)n(CCCO)c(=O)c2c(C(O)c3ccc(Cl)cc3)c(-c3cccc(Cl)c3)sc21 (stereo not shown) [Compound 4, 6-(3-chlorophenyl)-5-((4-chlorophenyl) (hydroxy)methyl)-3-(3-hydroxypropyl)-1-methylthieno[2,3-d]pyrimidine-2,4(1H,3H)-dione]
IC50 [1]: 55 nM

Cn1c(=O)n(CCCO)c(=O)c2c(Cc3ccc(Cl)cc3)c(Oc3cccc(OC(F)(F)F)c3)sc21 [Compound 1, 5-(4-chlorobenzyl)-3-(3-hydroxypropyl)-1-methyl-6-(3-(trifluoromethoxy)phenoxy)thieno[2,3-d]pyrimidine-2,4(1H,3H)-dione]
IC50 [1]: 584 nM | IC50 [2]: < 1 nM

Cc1c(-c2cccc(F)c2)sc2c1c(=O)n(CCCO)c(=O)n2C [Compound 18, 6-(3-fluorophenyl)-3-(3-hydroxypropyl)-1,5-dimethylthieno[2,3-d]pyrimidine-2,4(1H,3H)-dione]
IC50 [1]: 27 nM

Cc1c(-c2ccc(F)c(C(F)(F)F)c2)sc2c1c(=O)n(CCCO)c(=O)n2C [Compound 6, 6-(4-fluoro-3-(trifluoromethyl)phenyl)-3-(3-hydroxypropyl)-1,5-dimethylthieno[2,3-d]pyrimidine-2,4(1H,3H)-dione]
IC50 [1]: < 27 nM

Cn1c(=O)n(CCCO)c(=O)c2c(Cc3ccc(Cl)cc3)c(-c3cccc(Cl)c3)oc21 [Compound 27, 5-(4-chlorobenzyl)-6-(3-chlorophenyl)-3-(3-hydroxypropyl)-1-methylfuro[2,3-d]pyrimidine-2,4(1H,3H)-dione]
IC50 [1]: 134 nM | IC50 [2]: < 1 nM

Cn1c(=O)n(CCCO)c(=O)c2c(Cc3ccc(Cl)cc3)c(-c3ccc(Cl)cc3)sc21 [Compound 24, 5-(4-chlorobenzyl)-6-(4-chlorophenyl)-3-(3-hydroxypropyl)-1-methylthieno[2,3-d]pyrimidine-2,4(1H,3H)-dione]
IC50 [1]: 242 nM | IC50 [2]: 1.84 nM

Cc1c(-c2ccc(Cl)c(Cl)c2)sc2c1c(=O)n(CCCO)c(=O)n2C [Compound 5, 6-(3,4-dichlorophenyl)-3-(3-hydroxypropyl)-1,5-dimethylthieno[2,3-d]pyrimidine-2,4(1H,3H)-dione]
IC50 [1]: < 27 nM

Cc1c(-c2ccccc2OC(F)(F)F)sc2c1c(=O)n(CCCO)c(=O)n2C [Compound 13, 3-(3-hydroxypropyl)-1,5-dimethyl-6-(2-(trifluoromethoxy)phenyl)thieno[2,3-d]pyrimidine-2,4(1H,3H)-dione]
IC50 [1]: < 21 nM

Cc1c(-c2ccccc2Cl)sc2c1c(=O)n(CCCO)c(=O)n2C [Compound 16, 6-(2-chlorophenyl)-3-(3-hydroxypropyl)-1,5-dimethylthieno[2,3-d]pyrimidine-2,4(1H,3H)-dione]
IC50 [1]: 27 nM

O=c1c2c(Cc3ccc(Cl)cc3)c(-c3cccc(Cl)c3)oc2n(CCCO)c(=O)n1CCCO [Compound 28, 5-(4-chlorobenzyl)-6-(3-chlorophenyl)-1,3-bis(3-hydroxypropyl)furo[2,3-d]pyrimidine-2,4(1H,3H)-dione]
IC50 [1]: 4330 nM

Cn1c(=O)n(CCCO)c(=O)c2c(Cc3ccc(Cl)cc3)c(-c3cccc(OC(F)(F)F)c3)sc21 [Compound 26, 5-(4-chlorobenzyl)-3-(3-hydroxypropyl)-1-methyl-6-(3-(trifluoromethoxy)phenyl)thieno[2,3-d]pyrimidine-2,4(1H,3H)-dione]
IC50 [1]: 1.91 nM | IC50 [2]: < 1 nM

CC(C)CCc1c(-c2cccc(OC(F)(F)F)c2)sc2c1c(=O)n(CCCO)c(=O)n2C [Compound 3, 3-(3-hydroxypropyl)-5-isopentyl-1-methyl-6-(3-(trifluoromethoxy)phenyl)thieno[2,3-d]pyrimidine-2,4(1H,3H)-dione]
IC50 [1]: 340 nM

CC(C)CC(O)c1c(-c2cccc(OC(F)(F)F)c2)sc2c1c(=O)n(CCCO)c(=O)n2C (stereo not shown) [Compound 22, 5-(1-hydroxy-3-methylbutyl)-3-(3-hydroxypropyl)-1-methyl-6-(3-(trifluoromethoxy)phenyl) thieno[2,3-d]pyrimidine-2,4(1H,3H)-dione]
IC50 [1]: 369 nM

Cc1c(-c2cccc(OC(F)(F)F)c2)sc2c1c(=O)n(CCCO)c(=O)n2C [Compound 14, 3-(3-hydroxypropyl)-1,5-dimethyl-6-(3-(trifluoromethoxy)phenyl)thieno[2,3-d]pyrimidine-2,4(1H,3H)-dione]
IC50 [1]: 82.2 nM

Cn1c(=O)n(CCCO)c(=O)c2c(Cc3ccc(Cl)cc3)c(-c3cccc(Cl)c3)sc21 [Compound 23, 5-(4-chlorobenzyl)-6-(3-chlorophenyl)-3-(3-hydroxypropyl)-1-methylthieno[2,3-d]pyrimidine-2,4(1H,3H)-dione]
IC50 [1]: 27 nM

Cc1c(-c2cccc(Cl)c2)sc2c1c(=O)n(CCCO)c(=O)n2C [Compound 19, 6-(3-chlorophenyl)-3-(3-hydroxypropyl)-1,5-dimethylthieno[2,3-d]pyrimidine-2,4(1H,3H)-dione]
IC50 [1]: 226 nM

Cc1c(-c2ccc(Cl)cc2)sc2c1c(=O)n(CCCO)c(=O)n2C [Compound 25, 6-(4-chlorophenyl)-3-(3-hydroxypropyl)-1,5-dimethylthieno[2,3-d]pyrimidine-2,4(1H,3H)-dione]
IC50 [1]: 168 nM | IC50 [2]: 15.7 nM

Cc1c(-c2ccc(F)c(F)c2)sc2c1c(=O)n(CCCO)c(=O)n2C [Compound 15, 6-(3,4-difluorophenyl)-3-(3-hydroxypropyl)-1,5-dimethylthieno[2,3-d]pyrimidine-2,4(1H,3H)-dione]
IC50 [1]: 112 nM

Cc1c(-c2ccc3ccccc3c2)sc2c1c(=O)n(CCCO)c(=O)n2C [Compound 7, 3-(3-hydroxypropyl)-1,5-dimethyl-6-(naphthalen-2-yl)thieno[2,3-d]pyrimidine-2,4(1H,3H)-dione]
IC50 [1]: 34.9 nM

Cc1c(-c2cncc(Cl)c2)sc2c1c(=O)n(CCCO)c(=O)n2C [Compound 8, 6-(5-chloropyridin-3-yl)-3-(3-hydroxypropyl)-1,5-dimethylthieno[2,3-d]pyrimidine-2,4(1H,3H)-dione]
IC50 [1]: 1700 nM
